How the values were obtained:
Format in all cases: cell-based
[1] = system: Bordetella bronchiseptica; assay: Bactericide test, Bordetella bronchiseptica (agar streak plate)
Summary of the method: (§1)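 Compounds were formulated with Triton X-155/acetone emulsifier (basic formulation 320 ppm, serially diluted) and mixed 2:8 into molten nutrient-tryptic soy agar. Organisms were streaked onto the plates and incubated 48 hr at 28°C. Growth inhibition was scored visually against untreated agar as 0, 50 or 100% control.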

Streptococcus group E = assay: Bactericide test, Streptococcus group E (agar streak plate)
Summary of the method: as §1

Streptococcus faecalis = assay: Bactericide test, Streptococcus faecalis (agar streak plate)
Summary of the method: (§2)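 Compounds in Triton X-155/acetone emulsifier (basic formulation 320 ppm, diluted serially) were mixed 2:8 into molten nutrient-tryptic soy agar, then organisms streaked on the set plates. After 48 hr at 28°C, growth was scored visually against untreated agar as 0%, 50% (sparse, separated colonies) or 100% control (no visible colonies).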

Streptococcus agalactiae = assay: Bactericide test, Streptococcus agalactiae (agar streak plate)
Summary of the method: as §1

Salmonella gallinarum = assay: Bactericide test, Salmonella gallinarum (agar streak plate); settings: Salmonella enterica, GALLINARUM
Summary of the method: as §2

Salmonella typhimurium = assay: Bactericide test, Salmonella typhimurium (agar streak plate); settings: Salmonella enterica, TYPHIMURIUM
Summary of the method: as §1

[2] = 100% inhibition at lower concentrations

`O=[N+]([O-])c1ccc(C=Cc2nc(Nc3cccc(O)c3)c3ccccc3n2)o1` [Example II, 2-[2-(5-nitro-2-furyl)vinyl]-4-(m-hydroxyanilino)quinazoline] was tested, and the “effectiveness compared with chlortetracycline (in words)” value [1, 2] was “considerably more effective”, the inhibition at 0.125 ppm ([1]; Bordetella bronchiseptica, 0.125 ppm) was 0% and the inhibition at 0.25 ppm ([1]; Bordetella bronchiseptica, 0.25 ppm) was 0%. It also gave an inhibition at 0.5 ppm ([1]; Bordetella bronchiseptica, 0.5 ppm) of 0%, an inhibition at 1 ppm ([1]; Bordetella bronchiseptica, 1 ppm, read-out: % Inhibition) of 0% and an inhibition at 2 ppm ([1]; Bordetella bronchiseptica, 2 ppm) of 0%. The inhibition at 4 ppm ([1]; Bordetella bronchiseptica, 4 ppm, read-out: % Inhibition) was 0%, the inhibition at 8 ppm ([1]; Bordetella bronchiseptica, 8 ppm) was 0% and the inhibition at 16 ppm ([1]; Bordetella bronchiseptica, 16 ppm, read-out: % Inhibition) was 100%. For the same compound, the inhibition at 32 ppm ([1]; Bordetella bronchiseptica, 32 ppm) was 100%, the inhibition at 64 ppm ([1]; Bordetella bronchiseptica, 64 ppm, read-out: % Inhibition) was 100% and the inhibition at 0.125 ppm (Streptococcus group E; 0.125 ppm) was 100%. The inhibition at 0.25 ppm (Streptococcus group E; 0.25 ppm) was 100%, the inhibition at 0.5 ppm (Streptococcus group E; 0.5 ppm) was 100% and the inhibition at 1 ppm (Streptococcus group E; 1 ppm, read-out: % Inhibition) was 100%. It also gave an inhibition at 2 ppm (Streptococcus group E; 2 ppm) of 100%, an inhibition at 4 ppm (Streptococcus group E; 4 ppm, read-out: % Inhibition) of 100% and an inhibition at 8 ppm (Streptococcus group E; 8 ppm) of 100%. For the same compound, the inhibition at 16 ppm (Streptococcus group E; 16 ppm, read-out: % Inhibition) was 100%, the inhibition at 32 ppm (Streptococcus group E; 32 ppm) was 100% and the inhibition at 64 ppm (Streptococcus group E; 64 ppm, read-out: % Inhibition) was 100%. The “effectiveness compared with chlortetracycline (in words)” value (Streptococcus group E; [2]) was “considerably more effective”, the “effectiveness compared with chlortetracycline (in words)” value (Streptococcus faecalis; [2]) was “considerably more effective” and the inhibition at 0.125 ppm (Streptococcus faecalis; Enterococcus faecalis, 0.125 ppm) was 0%. It also gave an inhibition at 0.25 ppm (Streptococcus faecalis; Enterococcus faecalis, 0.25 ppm) of 50%, an inhibition at 0.5 ppm (Streptococcus faecalis; Enterococcus faecalis, 0.5 ppm) of 100% and an inhibition at 1 ppm (Streptococcus faecalis; Enterococcus faecalis, 1 ppm, read-out: % Inhibition) of 100%. The inhibition at 2 ppm (Streptococcus faecalis; Enterococcus faecalis, 2 ppm) was 100%, the inhibition at 4 ppm (Streptococcus faecalis; Enterococcus faecalis, 4 ppm, read-out: % Inhibition) was 100% and the inhibition at 8 ppm (Streptococcus faecalis; Enterococcus faecalis, 8 ppm) was 100%. The inhibition at 16 ppm (Streptococcus faecalis; Enterococcus faecalis, 16 ppm, read-out: % Inhibition) was 100%, the inhibition at 32 ppm (Streptococcus faecalis; Enterococcus faecalis, 32 ppm) was 100% and the inhibition at 64 ppm (Streptococcus faecalis; Enterococcus faecalis, 64 ppm, read-out: % Inhibition) was 100%. The “effectiveness compared with chlortetracycline (in words)” value (Streptococcus agalactiae; [2]) was “considerably more effective”, the inhibition at 0.125 ppm (Streptococcus agalactiae; Streptococcus agalactiae, 0.125 ppm) was 100% and the inhibition at 0.25 ppm (Streptococcus agalactiae; Streptococcus agalactiae, 0.25 ppm) was 100%. For the same compound, the inhibition at 0.5 ppm (Streptococcus agalactiae; Streptococcus agalactiae, 0.5 ppm) was 100%, the inhibition at 1 ppm (Streptococcus agalactiae; Streptococcus agalactiae, 1 ppm, read-out: % Inhibition) was 100% and the inhibition at 2 ppm (Streptococcus agalactiae; Streptococcus agalactiae, 2 ppm) was 100%. The inhibition at 4 ppm (Streptococcus agalactiae; Streptococcus agalactiae, 4 ppm, read-out: % Inhibition) was 100%, the inhibition at 8 ppm (Streptococcus agalactiae; Streptococcus agalactiae, 8 ppm) was 100% and the inhibition at 16 ppm (Streptococcus agalactiae; Streptococcus agalactiae, 16 ppm, read-out: % Inhibition) was 100%. The inhibition at 32 ppm (Streptococcus agalactiae; Streptococcus agalactiae, 32 ppm) was 100%, the inhibition at 64 ppm (Streptococcus agalactiae; Streptococcus agalactiae, 64 ppm, read-out: % Inhibition) was 100% and the inhibition at 0.125 ppm (Salmonella gallinarum; 0.125 ppm) was 0%. It also gave an inhibition at 0.25 ppm (Salmonella gallinarum; 0.25 ppm) of 0%, an inhibition at 0.5 ppm (Salmonella gallinarum; 0.5 ppm) of 0% and an inhibition at 1 ppm (Salmonella gallinarum; 1 ppm) of 0%. The inhibition at 2 ppm (Salmonella gallinarum; 2 ppm) was 0%, the inhibition at 4 ppm (Salmonella gallinarum; 4 ppm) was 0% and the inhibition at 8 ppm (Salmonella gallinarum; 8 ppm) was 0%. It also gave an inhibition at 16 ppm (Salmonella gallinarum; 16 ppm) of 0%, an inhibition at 32 ppm (Salmonella gallinarum; 32 ppm) of 0% and an inhibition at 64 ppm (Salmonella gallinarum; 64 ppm) of 0%. The inhibition at 0.125 ppm (Salmonella typhimurium; 0.125 ppm) was 0%, the inhibition at 0.25 ppm (Salmonella typhimurium; 0.25 ppm) was 0% and the inhibition at 0.5 ppm (Salmonella typhimurium; 0.5 ppm) was 0%. It also gave an inhibition at 1 ppm (Salmonella typhimurium; 1 ppm, read-out: % Inhibition) of 0%.

Source: patent US3970648A, “2-[2-(5-Nitro-2-furyl)vinyl]-4-(anilino)quinazolines” (Diamond Shamrock Corporation, priority 1974, dated 1976)
